Experimental data taken from ChEMBL document CHEMBL4330184, “Aryl Substituted Benzimidazolones as Potent HIV-1 Non-Nucleoside Reverse Transcriptase Inhibitors” (ACS Med Chem Lett, 2019).

Tests used:
[1] = Cytotoxicity against HEK293T cells assessed as reduction in cell viability after 48 hrs by CellTiter 96 aqueous one solution assay; type: cell-based, HEK-293T; conditions: human
[2] = tested on: Human immunodeficiency virus 1; test: Selectivity ratio of IC50 for HIV1 reverse transcriptase V106M mutant in HIV1 infected HEK293T cells to IC50 for wild-type HIV1 reverse transcriptase in HIV1 infected HEK293T cells
[3] = tested on: Human immunodeficiency virus 1; test: Selectivity ratio of IC50 for HIV1 reverse transcriptase K103N mutant in HIV1 infected HEK293T cells to IC50 for wild-type HIV1 reverse transcriptase in HIV1 infected HEK293T cells
[4] = tested on: Human immunodeficiency virus 1; test: Selectivity ratio of IC50 for HIV1 reverse transcriptase Y181C mutant in HIV1 infected HEK293T cells to IC50 for wild-type HIV1 reverse transcriptase in HIV1 infected HEK293T cells

Compound | CC50 at 48 h [1] | other results
CC1(C)OC(=O)Nc2cccc(Oc3cc(Cl)cc(C#N)c3)c21 | 82.7 µM | 
CCCn1c(=O)[nH]c2cccc(Oc3cc(Cl)cc(C#N)c3)c21 | 24.8 µM | 
CCn1c(=O)[nH]c2cccc(Oc3ccnc(Cl)c3)c21 | 95.1 µM | 
Cn1c(=O)[nH]c2cccc(Oc3cc(Cl)cc(C#N)c3)c21 | 53.4 µM | Ratio IC50 [2]: > 10
Cc1ccnc2c1NC(=O)c1cccnc1N2C1CC1 [NEVIRAPINE] | 92.7 µM | 
CCn1c(=O)[nH]c2cccc(Oc3ccnc(C#N)c3)c21 | > 100 µM | 
CCn1c(=O)[nH]c2cccc(Oc3cccc4ccccc34)c21 | 31.3 µM | 
CCC(c1ccccc1)n1c(=O)[nH]c2ccc(Cl)cc21 (racemic) | 55 µM | Ratio IC50 [3]: > 10; Ratio IC50 [4]: > 10
CCn1c(=O)[nH]c2cccc(Oc3cc(C#N)cc(C#N)c3)c21 | 96.6 µM | 
CCn1c(=O)[nH]c2cccc(Oc3cc(C#N)cc(/C=C/C#N)c3)c21 | 9.7 µM | 
CCn1c(=O)[nH]c2cccc(Oc3cc(C#N)ccn3)c21 | > 100 µM | 
CCn1c(=O)[nH]c2cccc(Oc3cc(Cl)cc(C#N)c3)c21 | 24.1 µM | Ratio IC50 [2]: > 10
CCn1c(=O)[nH]c2cccc(Oc3cc(C)cc(C)c3)c21 | 7.16 µM | 
CCn1c(=O)[nH]c2cccc(Oc3ccccc3)c21 | 55 µM | 
